# Literature values in US20240139197A1, “INHIBITION OF KDM5A FOR PROMOTING ANTIGEN PRESENTATION, INCREASING CD8+ T CELL INFILTRATION AND BOOSTING ANTI-TUMOR IMMUNE RESPONSE” (The Wistar Institute of Anatomy and Biology, priority 2022, published 2024).
# Read-outs that look alike come from different tables or passages of the source.
# Legend:
# KDM5A [1] = biological target: T1, KDM5A (Homo sapiens (Human), UniProt P29375); conditions: KDM5A inhibitors disclosed in Miyake et al; cited from earlier work
# KDM5A [2] = biological target: T1, KDM5A; conditions: biochemical assay with pre-incubation; cited from earlier work
# KDM5B = KDM5B (Homo sapiens (Human), UniProt Q9UGL1); conditions: biochemical assay with pre-incubation; cited from earlier work
# KDM4C = KDM4C (Homo sapiens (Human), UniProt Q9H3R0); conditions: biochemical assay with pre-incubation; cited from earlier work
# Chain of KDM4C (Q9H3R0 whole entry, species assumed): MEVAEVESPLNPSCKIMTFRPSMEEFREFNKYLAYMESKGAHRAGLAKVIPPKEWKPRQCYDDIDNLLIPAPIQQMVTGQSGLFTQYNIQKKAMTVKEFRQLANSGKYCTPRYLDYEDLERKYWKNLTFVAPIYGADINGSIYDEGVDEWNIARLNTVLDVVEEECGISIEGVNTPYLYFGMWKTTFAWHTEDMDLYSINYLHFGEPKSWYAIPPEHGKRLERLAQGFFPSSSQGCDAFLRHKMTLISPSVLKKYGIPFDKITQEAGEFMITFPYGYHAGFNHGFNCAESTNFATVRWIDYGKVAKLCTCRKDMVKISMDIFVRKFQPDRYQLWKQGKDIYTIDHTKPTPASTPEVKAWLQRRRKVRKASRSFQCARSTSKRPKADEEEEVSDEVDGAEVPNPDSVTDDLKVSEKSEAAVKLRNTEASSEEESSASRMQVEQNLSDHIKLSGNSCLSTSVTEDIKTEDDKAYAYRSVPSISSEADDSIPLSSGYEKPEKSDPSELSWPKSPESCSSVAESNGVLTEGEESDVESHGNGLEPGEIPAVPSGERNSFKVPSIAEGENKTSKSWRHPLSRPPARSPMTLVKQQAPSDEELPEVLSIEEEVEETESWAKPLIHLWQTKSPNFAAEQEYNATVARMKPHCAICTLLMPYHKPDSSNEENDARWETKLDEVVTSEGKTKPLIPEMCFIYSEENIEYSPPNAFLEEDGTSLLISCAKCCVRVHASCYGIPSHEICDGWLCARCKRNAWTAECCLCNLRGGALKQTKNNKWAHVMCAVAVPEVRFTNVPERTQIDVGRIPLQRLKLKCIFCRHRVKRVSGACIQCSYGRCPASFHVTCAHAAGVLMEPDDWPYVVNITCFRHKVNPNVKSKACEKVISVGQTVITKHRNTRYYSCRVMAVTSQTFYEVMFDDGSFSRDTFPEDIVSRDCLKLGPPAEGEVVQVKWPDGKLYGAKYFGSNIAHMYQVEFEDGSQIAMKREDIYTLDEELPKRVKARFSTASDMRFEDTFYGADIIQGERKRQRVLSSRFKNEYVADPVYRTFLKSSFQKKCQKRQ
# Chain of KDM5B (Q9UGL1 whole entry, species assumed): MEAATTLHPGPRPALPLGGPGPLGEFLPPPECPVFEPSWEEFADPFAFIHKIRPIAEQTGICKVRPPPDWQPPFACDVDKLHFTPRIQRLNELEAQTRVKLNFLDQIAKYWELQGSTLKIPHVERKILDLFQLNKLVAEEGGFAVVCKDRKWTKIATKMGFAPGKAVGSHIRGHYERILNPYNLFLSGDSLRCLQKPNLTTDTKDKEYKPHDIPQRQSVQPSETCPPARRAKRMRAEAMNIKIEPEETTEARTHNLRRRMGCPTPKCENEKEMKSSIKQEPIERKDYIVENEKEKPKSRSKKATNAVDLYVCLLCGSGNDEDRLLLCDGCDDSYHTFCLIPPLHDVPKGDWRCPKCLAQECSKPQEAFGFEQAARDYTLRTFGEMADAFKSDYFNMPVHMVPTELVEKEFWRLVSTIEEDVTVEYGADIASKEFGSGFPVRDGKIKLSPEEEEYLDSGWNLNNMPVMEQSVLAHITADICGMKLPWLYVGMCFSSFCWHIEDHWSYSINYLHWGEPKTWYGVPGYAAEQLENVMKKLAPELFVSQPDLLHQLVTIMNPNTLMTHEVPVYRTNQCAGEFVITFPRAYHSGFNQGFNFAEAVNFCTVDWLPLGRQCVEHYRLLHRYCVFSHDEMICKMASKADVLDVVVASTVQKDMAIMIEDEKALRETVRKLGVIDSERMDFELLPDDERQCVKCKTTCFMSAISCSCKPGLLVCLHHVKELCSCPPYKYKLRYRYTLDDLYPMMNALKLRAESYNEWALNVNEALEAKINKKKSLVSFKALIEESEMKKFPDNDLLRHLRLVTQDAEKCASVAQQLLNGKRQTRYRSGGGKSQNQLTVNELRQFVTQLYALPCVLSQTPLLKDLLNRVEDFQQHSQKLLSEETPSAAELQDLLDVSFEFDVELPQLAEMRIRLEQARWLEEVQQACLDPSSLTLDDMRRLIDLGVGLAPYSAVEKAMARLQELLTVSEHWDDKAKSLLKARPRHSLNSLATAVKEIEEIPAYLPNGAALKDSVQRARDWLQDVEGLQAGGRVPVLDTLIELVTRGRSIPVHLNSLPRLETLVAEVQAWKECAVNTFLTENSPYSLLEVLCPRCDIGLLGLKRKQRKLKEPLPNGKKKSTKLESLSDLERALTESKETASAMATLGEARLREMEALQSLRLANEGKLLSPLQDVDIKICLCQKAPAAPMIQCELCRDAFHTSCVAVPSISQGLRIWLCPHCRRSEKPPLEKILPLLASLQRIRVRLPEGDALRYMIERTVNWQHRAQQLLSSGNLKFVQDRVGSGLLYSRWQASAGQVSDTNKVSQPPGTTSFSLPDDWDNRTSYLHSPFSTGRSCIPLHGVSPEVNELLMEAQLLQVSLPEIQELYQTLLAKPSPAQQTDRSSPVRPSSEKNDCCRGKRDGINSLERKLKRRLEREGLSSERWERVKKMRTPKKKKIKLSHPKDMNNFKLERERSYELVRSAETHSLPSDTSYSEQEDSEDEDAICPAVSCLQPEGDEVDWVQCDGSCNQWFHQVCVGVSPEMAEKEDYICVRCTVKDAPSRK
# T1 sequence (P29375 whole entry): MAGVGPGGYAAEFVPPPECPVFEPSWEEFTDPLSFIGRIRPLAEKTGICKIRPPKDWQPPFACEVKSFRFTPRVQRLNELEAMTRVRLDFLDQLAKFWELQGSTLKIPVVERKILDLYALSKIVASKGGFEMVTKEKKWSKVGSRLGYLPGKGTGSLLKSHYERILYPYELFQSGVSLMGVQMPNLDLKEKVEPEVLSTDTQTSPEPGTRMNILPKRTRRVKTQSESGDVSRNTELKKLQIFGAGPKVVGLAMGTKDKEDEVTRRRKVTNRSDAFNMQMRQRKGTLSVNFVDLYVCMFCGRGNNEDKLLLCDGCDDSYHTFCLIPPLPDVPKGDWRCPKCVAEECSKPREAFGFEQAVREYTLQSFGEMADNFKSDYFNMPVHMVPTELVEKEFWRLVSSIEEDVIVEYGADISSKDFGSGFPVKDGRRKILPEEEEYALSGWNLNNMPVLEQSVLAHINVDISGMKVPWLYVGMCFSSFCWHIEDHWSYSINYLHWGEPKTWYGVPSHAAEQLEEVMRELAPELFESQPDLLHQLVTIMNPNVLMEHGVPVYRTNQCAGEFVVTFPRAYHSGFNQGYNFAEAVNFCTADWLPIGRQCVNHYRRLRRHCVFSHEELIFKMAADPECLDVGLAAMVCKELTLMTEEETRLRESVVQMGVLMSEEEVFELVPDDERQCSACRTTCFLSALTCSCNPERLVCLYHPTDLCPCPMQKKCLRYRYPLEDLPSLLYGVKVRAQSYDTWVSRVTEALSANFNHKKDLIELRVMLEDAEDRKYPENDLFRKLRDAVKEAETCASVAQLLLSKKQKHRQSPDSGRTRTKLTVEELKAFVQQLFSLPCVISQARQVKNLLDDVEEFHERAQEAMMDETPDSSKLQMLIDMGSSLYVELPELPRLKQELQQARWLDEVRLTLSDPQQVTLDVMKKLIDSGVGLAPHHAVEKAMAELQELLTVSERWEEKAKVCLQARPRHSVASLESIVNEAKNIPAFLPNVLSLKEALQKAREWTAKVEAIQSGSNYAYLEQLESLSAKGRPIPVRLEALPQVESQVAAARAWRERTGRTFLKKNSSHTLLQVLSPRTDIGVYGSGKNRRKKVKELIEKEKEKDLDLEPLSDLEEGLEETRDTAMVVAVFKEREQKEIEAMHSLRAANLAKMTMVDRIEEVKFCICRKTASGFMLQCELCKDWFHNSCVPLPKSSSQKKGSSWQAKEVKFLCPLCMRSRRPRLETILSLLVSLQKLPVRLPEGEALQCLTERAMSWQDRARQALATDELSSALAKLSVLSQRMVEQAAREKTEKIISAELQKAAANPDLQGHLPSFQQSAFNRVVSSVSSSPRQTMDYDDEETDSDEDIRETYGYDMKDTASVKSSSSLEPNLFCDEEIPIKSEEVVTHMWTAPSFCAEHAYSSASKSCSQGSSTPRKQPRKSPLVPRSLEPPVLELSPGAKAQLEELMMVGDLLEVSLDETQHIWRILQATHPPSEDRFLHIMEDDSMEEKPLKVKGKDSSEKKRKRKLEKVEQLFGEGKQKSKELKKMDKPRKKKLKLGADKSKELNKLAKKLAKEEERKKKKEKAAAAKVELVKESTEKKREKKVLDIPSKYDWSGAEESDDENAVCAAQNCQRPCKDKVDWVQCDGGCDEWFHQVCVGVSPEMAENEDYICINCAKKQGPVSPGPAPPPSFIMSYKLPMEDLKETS
SMILES,IC50 (KDM5A [1]) [µM],IC50 (KDM5A [2]) [µM],IC50 (KDM5B) [µM],IC50 (KDM4C) [µM]
CCCCCCN(C)Cc1cccc(-c2[nH]c3c(C#N)cnn3c(=O)c2C(C)C)c1 [Compound 11],0.0653 ± 0.0086,–,–,–
CCCCCCN(C)Cc1cc(-c2[nH]c3c(C#N)cnn3c(=O)c2C(C)C)cs1 [Compound 12],0.179 ± 0.012,–,–,–
CCCCCCN(C)CCc1ccc(-c2[nH]c3c(C#N)cnn3c(=O)c2C(C)C)cc1 [Compound 13],0.00437 ± 0.00019,–,–,–
O=C(O)c1ccnc(-n2nccc2OCc2ccc(Cl)cc2F)c1 [Compound 32],–,0.018,0.004,–
Cc1cc(Cl)ccc1COc1ccnn1-c1cc(C(=O)O)ccn1 [Compound 33],–,0.013,0.002,0.041
COc1cc(Cl)ccc1COc1ccnn1-c1cc(C(=O)O)ccn1 [Compound 34],–,0.012,–,0.038
CCOc1cc(Cl)ccc1COc1ccnn1-c1cc(C(=O)O)ccn1 [Compound 35],–,–,0.004,0.078
O=C(O)c1ccnc(-n2nccc2OCc2ccc(Cl)cc2OCC2CC2)c1 [Compound 36],–,–,–,0.28
